Here are results for 6 compounds from patent EP1534672B1, “RETINOL DERIVATIVES, THEIR USE IN THE TREATMENT OF CANCER AND FOR POTENTIATING THE EFFICACY OF OTHER CYTOTOXIC AGENTS” (priority 2002, dated 2004).

The conditions of series [1]: rat, in vivo, ip; for mortality: 100 mg/kg.
Description: A single dose i.p. toxicity study in rats was carried out. […] The minimal lethal dose is thus above 100 mg/kg body weight for these compounds.
Series [2] relates to Human Breast Adenocarcinoma Cell Line MDA-MB-231. The experiment in a line: Drug cytotoxicity testing (viable cell count, trypan blue exclusion, cell growth inhibition). Format: cell-based. The note with it: for inhibition at 0.1 µM / inhibition at 0.01 µM / inhibition at 0.001 µM: Homo sapiens; for cell growth inhibition in (A) compared to compound in B / cell growth inhibition reached on increase of the concentration, in (B): sodium salt, range 10^-9 to 10^-7 M; for cell growth inhibition reached on increase of the concentration, in (B): dilution in normal saline (B). How it is done: MDA-MB-231 cells were propagated in MEM culture medium with 2 mM L-glutamine, 10% heat-inactivated fetal bovine serum (FBS) and antibiotics. DU 145 cells were cultured in MEM culture medium containing 2 mM L-glutamine, 1 mM sodium pyruvate, 10% FBS and antibiotics. SKOV-3 cells were cultured in McCoy's 5A culture medium, supplemented with 1,5 mM L-glutamine, 10% FBS and antibiotics. A549 cells were cultured in Ham's F-12 culture medium with 1 mM L-glutamine, 10% FBS and antibiotics. All media and supplements were purchased from Sigma-Aldrich (St.Louis, MO, USA). Cell propagation of all lines was carried out in Falcon™ 25 cm^2 cultivation flasks (Becton Dickinson Labware).
Drug cytotoxicity testing was carried out with using Falcon™ 96-well cultivation plates for adherent cells (Becton Dickinson Labware). These plates were seeded by cells either at 12 × 10^3 MDA-MB-231 cells/well, or at 12 × 10^3 DU 145 cells/well, or at 14 × 10^3 SKOV-3 cells/well, or at 10 × 10^3 A549 cells/well in a volume of 200 µL/well.
The cell cultures in cultivation plates were allowed to adhere for 24 hour of incubation. On day 1 after cell seeding, 2 µL solutions of the drugs to be tested in medium with 5% FBS was added to the cultures. In the control cultures, 2 µL of medium with 5% FBS was added as solvent control. The cells were incubated for 2 consecutive days. At the end of the incubation period adherent cells were detached by trypsinization and the number of viable cells was counted using trypan blue exclusion test and a hemocytometer. All data were derived from an average of three determinations each in six replicates. The results were expressed as mean cell number ± SE and the differences between control and test series evaluated by means of Student's t-test. The drug cytotoxicity was evaluated based on the extent of cell growth inhibition. The cell growth inhibition of the tested drugs was calculated as follows: Cell growth inhibition,% = (Control-TestSeries)/(Control) × 100 [formula]
In the case of comparative evaluation of cytotoxicity of the inventive compounds themselves and the formulation related to consecutive dilutions of their initial solutions before adding to the cultures, 2 µL solutions of the drugs to be tested in medium with 5% FBS, in normal saline and in saline with 2,3 mM CaCl2 were added to the cultures. In control cultures, 2 µL of medium with 5% FBS, normal saline and saline with 2,3 mM CaCl2 were added as solvent controls (negative controls). […] Therefore an average of negative controls was calculated. […] Therefore an average of positive controls was calculated (for each antibiotic).

Setting [3] is: MDA-MB-231, 48 h, compound alone, final concentration 10^-7 mol/L, working solutions in MEM with 5% FBS, two days, read-out: cell growth inhibition.
Setting [4] is: MDA-MB-231, 48 h, compound alone, final concentration 10^-8 mol/L, working solutions in MEM with 5% FBS, two days, read-out: cell growth inhibition.
The mark [5] stands for this setting: MDA-MB-231, 48 h, compound alone, final concentration 10^-9 mol/L, working solutions in MEM with 5% FBS, two days, read-out: cell growth inhibition.
Setting [6] is: compound alone, final concentration 10^-7 mol/L, working solutions in MEM with 5% FBS, two days.
Where [7] appears, read: compound alone, final concentration 10^-8 mol/L, working solutions in MEM with 5% FBS, two days.
[8] abbreviates: compound alone, final concentration 10^-9 mol/L, working solutions in MEM with 5% FBS, two days.
[9] abbreviates: MDA-MB-231, compound alone 10^-7 mol/L, in A (saline with […] CaCl2), read-out: cell growth inhibition.
Where [10] appears, read: MDA-MB-231, compound alone 10^-7 mol/L, in B (normal saline), read-out: cell growth inhibition.
[11] abbreviates: MDA-MB-231, compound alone 10^-7 mol/L, read-out: Cell growth inhibition in A compared to that in B was increased by.
Setting [12] is: MDA-MB-231, compound alone 10^-8 mol/L, in A (saline with […] CaCl2), read-out: cell growth inhibition.
[13] abbreviates: MDA-MB-231, compound alone 10^-8 mol/L, in B (normal saline), read-out: cell growth inhibition.
The mark [14] stands for this setting: MDA-MB-231, compound alone 10^-8 mol/L, read-out: Cell growth inhibition in A compared to that in B was increased by.
Setting [15] is: MDA-MB-231, compound alone 10^-9 mol/L, in A (saline with […] CaCl2), read-out: cell growth inhibition.
The mark [16] stands for this setting: MDA-MB-231, compound alone 10^-9 mol/L, in B (normal saline), read-out: cell growth inhibition.
Setting [17] is: MDA-MB-231, compound alone 10^-9 mol/L, read-out: Cell growth inhibition in A compared to that in B was increased by.
Where [18] appears, read: compound alone 10^-7 mol/L, in B (normal saline).
The mark [19] stands for this setting: compound alone 10^-8 mol/L, in B (normal saline).
The mark [20] stands for this setting: compound alone 10^-9 mol/L, in B (normal saline).

Read-outs that look alike come from different tables or passages of the source.

Take `COC(=O)[C@H](CS(=O)(=O)O)NC(=O)/C=C(C)/C=C/C=C(C)/C=C/C1=C(C)CCCC1(C)C` [compound I-1a, N-(all-trans-retinoyl)-L-cysteic acid methyl ester]: the minimal lethal dose result in series [1] was “above 100 mg/kg body weight”. Moreover, the mortality entry in series [1] is “did not produce mortality”. For the same compound, in series [2] (setting [3]), the inhibition at 0.1 µM worked out at 47.9%. The inhibition at 0.01 µM in series [2] (setting [4]) was determined as 45.6%. Moreover, the inhibition at 0.001 µM in series [2] (setting [5]) was determined as 40%. For the same compound, the results for the “number of viable cells” value in series [2] (setting [6]), in series [2] (setting [7]) and in series [2] (setting [8]) were 29.8 ± 2.44 × 10^3, 31.1 ± 1.90 × 10^3 and 34.3 ± 2.27 × 10^3, respectively.
`CC1=C(/C=C/C(C)=C/C=C/C(C)=C/C(=O)N[C@@H](CS(=O)(=O)O)C(N)=O)C(C)(C)CCC1` [compound I-1f, N-(all-trans-retinoyl)-L-cysteic acid amide]: in series [1], the minimal lethal dose entry is reported as “above 100 mg/kg body weight”. Also, in series [1], the mortality entry was “did not produce mortality”. In addition, the inhibition at 0.1 µM in series [2] (setting [3]) worked out at 52.5%; in series [2] (setting [9]), 53.3%; in series [2] (setting [10]), 44.9%; in series [2] (setting [11]) it was 15.2%. For the same compound, the inhibition at 0.01 µM was 48.6% in series [2] (setting [4]), 46.3% in series [2] (setting [12]), 36.1% in series [2] (setting [13]) and 16.1% in series [2] (setting [14]). Also, the inhibition at 0.001 µM in series [2] (setting [5]) amounted to 44.8%; in series [2] (setting [15]), 38.6%; in series [2] (setting [16]) it was 25.8%; in series [2] (setting [17]), 17.1%. Further, the “number of viable cells” value is 31.6 ± 0.89 × 10^3 in series [2] (setting [18]); 36.7 ± 0.75 × 10^3 in series [2] (setting [19]); 42.6 ± 0.80 × 10^3 in series [2] (setting [20]); 25.3 ± 1.11 × 10^3 in series [2] (setting [6]); 27.4 ± 1.42 × 10^3 in series [2] (setting [7]); 29.4 ± 2.15 × 10^3 in series [2] (setting [8]). In addition, the “cell growth inhibition in (A) compared to compound in B” value in series [2] was about 15%. Also, the “cell growth inhibition reached on increase of the concentration, in (B)” value (shortened to “cell growth inhibition reached on increase … (B)”) in series [2] is recorded as about 45%.
In the case of `CC1=C(/C=C/C(C)=C/C=C/C(C)=C/C(=O)N[C@@H](CS(=O)(=O)O)C(=O)N(C)C)C(C)(C)CCC1` [compound I-1h, N-(all-trans-retinoyl)-L-cysteic acid dimethylamide], in series [1], the minimal lethal dose entry is “above 100 mg/kg body weight”. The mortality result in series [1] is reported as “did not produce mortality”. In addition, the inhibition at 0.1 µM in series [2] (setting [3]) stood at 46.4%; in series [2] (setting [9]), 41.8%; in series [2] (setting [10]), 26%; in series [2] (setting [11]), 21.3%. The inhibition at 0.01 µM in series [2] (setting [4]) was found to be 39.6%; in series [2] (setting [12]), 34.2%; in series [2] (setting [13]), 17.4%; in series [2] (setting [14]), 20.4%. Besides, the inhibition at 0.001 µM turned out to be 32% in series [2] (setting [5]), 26.7% in series [2] (setting [15]), 7% in series [2] (setting [16]) and 21.1% in series [2] (setting [17]). Besides, the “number of viable cells” value was 41.3 ± 0.99 × 10^3 in series [2] (setting [18]); 46.1 ± 2.65 × 10^3 in series [2] (setting [19]); 51.9 ± 3.46 × 10^3 in series [2] (setting [20]); 30.3 ± 1.55 × 10^3 in series [2] (setting [6]); 34.1 ± 1.89 × 10^3 in series [2] (setting [7]); 38.4 ± 2.11 × 10^3 in series [2] (setting [8]). Also, the “cell growth inhibition in (A) compared to compound in B” value in series [2] was about 21%.
For `COC(=O)[C@H](CCS(=O)(=O)O)NC(=O)/C=C(C)/C=C/C=C(C)/C=C/C1=C(C)CCCC1(C)C` [compound I-3a, N-(all-trans-retinoyl)-L-homocysteic acid methyl ester], in series [1], the minimal lethal dose result was “above 100 mg/kg body weight”. Besides, the mortality entry in series [1] is “did not produce mortality”. For the same compound, the inhibition at 0.1 µM in series [2] (setting [3]) was determined as 49%. Further, the inhibition at 0.01 µM in series [2] (setting [4]) came out at 38.2%. Also, the inhibition at 0.001 µM in series [2] (setting [5]) was 29.2%. For the same compound, the figures for the “number of viable cells” value in series [2] (setting [6]) and in series [2] (setting [7]) were 28.8 ± 1.15 × 10^3 and 34.9 ± 1.64 × 10^3, respectively.
Take `CC1=C(/C=C/C(C)=C/C=C/C(C)=C/C(=O)N[C@@H](CCS(=O)(=O)O)C(N)=O)C(C)(C)CCC1` [compound I-3f, N-(all-trans-retinoyl)-L-homocysteic acid amide]: the minimal lethal dose entry in series [1] is listed as “above 100 mg/kg body weight”. Also, in series [1], the mortality entry was “did not produce mortality”. In addition, the inhibition at 0.1 µM was 55.2% in series [2] (setting [3]), 53.6% in series [2] (setting [9]), 40.8% in series [2] (setting [10]) and 21.6% in series [2] (setting [11]). For the same compound, the inhibition at 0.01 µM was 48.7% in series [2] (setting [4]), 46.8% in series [2] (setting [12]), 32.1% in series [2] (setting [13]) and 21.5% in series [2] (setting [14]). Further, the inhibition at 0.001 µM in series [2] (setting [5]) worked out at 41.4%; in series [2] (setting [15]) it was 39%; in series [2] (setting [16]), 21.8%; in series [2] (setting [17]), 21.9%. Further, the “number of viable cells” value in series [2] (setting [18]) is 32.8 ± 0.99 × 10^3; in series [2] (setting [19]), 37.6 ± 1.52 × 10^3; in series [2] (setting [20]) it was 43.3 ± 2.88 × 10^3; in series [2] (setting [6]) it was 25.3 ± 0.76 × 10^3; in series [2] (setting [7]) it was 29.0 ± 1.32 × 10^3; in series [2] (setting [8]), 33.1 ± 1.90 × 10^3. For the same compound, in series [2], the “cell growth inhibition in (A) compared to compound in B” value is listed as about 22%. In addition, the “cell growth inhibition reached on increase … (B)” value in series [2] is given as about 41%.
In the case of `CC1=C(/C=C/C(C)=C/C=C/C(C)=C\C(=O)N[C@@H](CS(=O)(=O)O)C(N)=O)C(C)(C)CCC1` [compound II-1f, N-(13-cis-retinoyl)-L-cysteic acid amide], in series [1], the minimal lethal dose result is reported as “above 100 mg/kg body weight”. Moreover, the mortality result in series [1] is “did not produce mortality”. The inhibition at 0.1 µM in series [2] (setting [3]) came to 53.2%; in series [2] (setting [10]), 45.8%; in series [2] (setting [11]), 15.4%. Moreover, the inhibition at 0.01 µM was 49.8% in series [2] (setting [4]), 47.4% in series [2] (setting [12]), 37.3% in series [2] (setting [13]) and 16.1% in series [2] (setting [14]). Besides, the inhibition at 0.001 µM in series [2] (setting [5]) was determined as 45.1%; in series [2] (setting [15]), 40.1%; in series [2] (setting [16]), 27.2%; in series [2] (setting [17]), 17.7%. Moreover, the “number of viable cells” value was 31.1 ± 0.96 × 10^3 in series [2] (setting [18]); 36.0 ± 1.28 × 10^3 in series [2] (setting [19]); 41.8 ± 1.46 × 10^3 in series [2] (setting [20]); 26.6 ± 1.83 × 10^3 in series [2] (setting [6]); 28.5 ± 2.13 × 10^3 in series [2] (setting [7]); 31.2 ± 2.42 × 10^3 in series [2] (setting [8]). Also, the “cell growth inhibition in (A) compared to compound in B” value in series [2] is reported as about 15%. Further, the “cell growth inhibition reached on increase … (B)” value in series [2] is about 46%.
